27 compounds from patent publication US20140073651A1, “BENZAMIDE DERIVATIVES AS P2X7 RECEPTOR ANTAGONISTS” (Actelion Pharmaceuticals Ltd., priority 2011, published 2014) can be followed below.

The term IC50 denotes the concentration at which inhibition is half-maximal.

The test concerns the target T1, human recombinant P2X7 receptor (Homo sapiens, UniProt Q99572).
T1 construct: expressed in transfected cells
T1 sequence (Q99572 1-595): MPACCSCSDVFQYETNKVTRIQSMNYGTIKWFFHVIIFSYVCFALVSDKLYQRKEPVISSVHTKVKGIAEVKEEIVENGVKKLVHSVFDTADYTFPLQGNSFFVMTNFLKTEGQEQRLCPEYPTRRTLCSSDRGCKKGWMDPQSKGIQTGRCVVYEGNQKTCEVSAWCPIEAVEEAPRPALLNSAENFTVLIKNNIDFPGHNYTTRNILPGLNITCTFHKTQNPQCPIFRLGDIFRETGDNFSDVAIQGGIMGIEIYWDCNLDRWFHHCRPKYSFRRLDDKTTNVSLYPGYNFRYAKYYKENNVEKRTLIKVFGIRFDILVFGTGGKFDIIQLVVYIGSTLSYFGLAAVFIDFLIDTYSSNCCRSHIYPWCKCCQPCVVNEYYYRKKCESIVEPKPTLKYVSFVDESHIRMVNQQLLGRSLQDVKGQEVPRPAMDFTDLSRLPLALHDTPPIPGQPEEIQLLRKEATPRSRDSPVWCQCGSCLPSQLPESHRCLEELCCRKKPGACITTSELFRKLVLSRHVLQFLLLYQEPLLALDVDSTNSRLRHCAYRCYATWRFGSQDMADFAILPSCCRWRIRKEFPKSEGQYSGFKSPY
Briefly: YO-PRO assay (YO-PRO-1 uptake) in HEK cells stably expressing P2X7. The test is classed as cell-based. The conditions noted are these: HEK-293 cells expressing human recombinant P2X7 receptor; ATP 250 μM, 90 minutes; YO-PRO-1 fluorescence (FLIPR tetra); read-out: IC50 (antagonistic activity with respect to the P2X7 receptor). As to the method:
Cell line generation was performed in general according to established molecular cloning protocols. Specifically, RNA was extracted from human whole blood using the Qiagen RNeasy kit (Qiagen, CH) according to the manufacturer's instructions. Subsequently cDNA was made (Superscript II, Invitrogen AG, CH) and the human P2X7 gene (genbank ref. BC011913) was amplified with the following primers: [NT] and [NT] The amplified sequence was subsequently ligated into a pcDNA3.1 (+) NotI, NheI digested plasmid. […] Following a 24 h exposure to DNA, cells were trypsinized and re-seeded at low density in the presence of 250 μg Geneticin. Geneticin resistant cells were then selected during two consecutive rounds of cloning by serial limiting dilution with visual inspection. Individual clones were screened for P2X7 expression by applying ATP and recording the resultant uptake of YO-[…]. Specific cell clones were chosen based on RNA and protein expression. HEK cells stably expressing P2X7 were used to screen drugs using the YO-[…] assay. Cells were grown to confluency in adherent culture at 37° C. in a humidified 5% CO2 incubator (split 1/5 every 3-4 days with DMEM, 10% FCS, 1% Penicillin/Streptomycin, 250 μg/ml Geneticin). Adherent cells were detached by incubation with Trypsine (1 ml per 165 cm^2 dish) for 2 minutes, then washed off with 10 ml PBS (without Mg^2+ and Ca^2+), and resuspended in DMEM, 10% FCS, 1% Penicillin/Streptomycin, no Geneticin. 10'000 cells per well (48 hours before the assay) or 25'000 cells per well (Vi-cell XR (Beckman Coulter) (24 hours before the assay) in 50 μl full medium were seeded on 384-well black-wall, clear bottom plates, that were coated before with 10 μl per well Poly-L-Lysine, incubated for 30-60 minutes at 37° C. and washed once with PBS. Medium was removed from cells and 50 μl of assay buffer containing 0.5 μM YO-[…] was added into the wells. Solutions of antagonist compounds were prepared by serial dilutions of a 10 mM DMSO solution of the antagonist into PBS using a BioMek (Beckman Coulter). Each concentration was performed in duplicate. […] During this time period, four time points were taken. Each time point comprised the average of several measurements made within a few seconds. […] The FLIPR tetra was equipped with Molecular Devices Screen Works system control software to define and run experimental protocols. […] For IC50 measurements the maximum intensity is plotted against the concentration of compound to determine IC50 values.
In the case of `CN(c1ccc(Cl)c(C(=O)NCC2(O)CCCCCCC2)c1)c1ccnc(=O)[nH]1` [Example 48, 2-Chloro-N-(1-hydroxy-cyclooctylmethyl)-5-[methyl-(2-oxo-2,3-dihydro-pyrimidin-4-yl)-amino]-benzamide], the IC50 worked out at 15 nM.

In the case of `CN(c1ccc(Cl)c(C(=O)NCC2(O)CCCC2)c1)c1ccnc(Cl)n1` [Example 49, 2-Chloro-5-[(2-chloro-pyrimidin-4-yl)-methyl-amino]-N-(1-hydroxy-cyclopentylmethyl)-benzamide], the IC50 was 1120 nM. In the case of `CN(c1ccc(Cl)c(C(=O)NCC2(O)CCCC2)c1)c1ccnc(=O)[nH]1` [Example 50, 2-Chloro-N-(1-hydroxy-cyclopentylmethyl)-5-[methyl-(2-oxo-2,3-dihydro-pyrimidin-4-yl)-amino]-benzamide], the half-maximal inhibitory concentration (IC50) stood at 258 nM. In the case of `COC1(CNC(=O)c2cc(N(C)c3ccnc(Cl)n3)ccc2Cl)CCCCC1` [Example 51, 2-Chloro-5-[(2-chloro-pyrimidin-4-yl)-methyl-amino]-N-(1-methoxy-cyclohexylmethyl)-benzamide], the IC50 came to 460 nM. On to `COC1(CNC(=O)c2cc(N(C)c3ccnc(=O)[nH]3)ccc2Cl)CCCCC1` [Example 52, 2-Chloro-N-(1-methoxy-cyclohexylmethyl)-5-[methyl-(2-oxo-2,3-dihydro-pyrimidin-4-yl)-amino]-benzamide], for which the IC50 came out at 170 nM.

Take `CN(c1ccc(Cl)c(C(=O)NCC2(C(N)=O)CCCCC2)c1)c1ccnc(Cl)n1` [Example 53, N-(1-Carbamoyl-cyclohexylmethyl)-2-chloro-5-[(2-chloro-pyrimidin-4-yl)-methyl-amino]-benzamide]: the 50% inhibitory concentration (IC50) was 576 nM. The figure for `CN(c1ccc(Cl)c(C(=O)NCC2(C(N)=O)CCCCC2)c1)c1ccnc(=O)[nH]1` [Example 54, N-(1-Carbamoyl-cyclohexylmethyl)-2-chloro-5-[methyl-(2-oxo-2,3-dihydro-pyrimidin-4-yl)-amino]-benzamide] is 231 nM. For the compound `CN(c1ccc(Cl)c(C(=O)NCC2(CO)CCCCC2)c1)c1ccnc(Cl)n1` [Example 55, 2-Chloro-5-[(2-chloro-pyrimidin-4-yl)-methyl-amino]-N-(1-hydroxymethyl-cyclohexylmethyl)-benzamide], the concentration for half-maximal inhibition (IC50) is 482 nM.

`CN(c1ccc(Cl)c(C(=O)NCC2(CO)CCCCC2)c1)c1ccnc(=O)[nH]1` [Example 56, 2-Chloro-N-(1-hydroxymethyl-cyclohexylmethyl)-5-[methyl-(2-oxo-2,3-dihydro-pyrimidin-4-yl)-amino]-benzamide]: the IC50 came out at 74 nM. The value for `CN(c1ccc(Cl)c(C(=O)NCC2(O)CCC(F)(F)CC2)c1)c1ccnc(Cl)n1` [Example 57, 2-Chloro-5-[(2-chloro-pyrimidin-4-yl)-methyl-amino]-N-(4,4-difluoro-1-hydroxy-cyclohexylmethyl)-benzamide] was 214 nM.

Regarding `CN(c1ccc(Cl)c(C(=O)NCC2(O)CCC(F)(F)CC2)c1)c1ccnc(=O)[nH]1` [Example 58, 2-Chloro-N-(4,4-difluoro-1-hydroxy-cyclohexylmethyl)-5-[methyl-(2-oxo-2,3-dihydro-pyrimidin-4-yl)-amino]-benzamide], the IC50 is 51 nM. In the case of `CSc1nccc(Nc2ccc(Cl)c(C(=O)N[C@H](C)C3CCCCC3)c2)n1` [Example 59, 2-Chloro-N—((R)-1-cyclohexyl-ethyl)-5-(2-methylsulfanyl-pyrimidin-4-ylamino)-benzamide], the IC50 turned out to be 1810 nM. For `CSc1nccc(Nc2ccc(Cl)c(C(=O)N[C@H](CO)C3CCCCC3)c2)n1` [Example 60, 2-Chloro-N—((S)-1-cyclohexyl-2-hydroxy-ethyl)-5-(2-methylsulfanyl-pyrimidin-4-ylamino)-benzamide], the IC50 was determined as 1030 nM. The figure for `CSc1nccc(Nc2ccc(Cl)c(C(=O)NCC3(O)CCCCCC3)c2)n1` [Example 61, 2-Chloro-N-(1-hydroxy-cycloheptylmethyl)-5-(2-methylsulfanyl-pyrimidin-4-ylamino)-benzamide] is 681 nM; for `CN(c1ccc(Cl)c(C(=O)NCC2(O)CCCCC2)c1)c1cc(Cl)nc(Cl)n1` [Example 62, 2-Chloro-5-[(2,6-dichloro-pyrimidin-4-yl)-methyl-amino]-N-(1-hydroxy-cyclohexylmethyl)-benzamide] it is 416 nM; for `COc1nc(Cl)cc(N(C)c2ccc(Cl)c(C(=O)NCC3(O)CCCCC3)c2)n1` [Example 63, 2-Chloro-5-[(6-chloro-2-methoxy-pyrimidin-4-yl)-methyl-amino]-N-(1-hydroxy-cyclohexylmethyl)-benzamide] it is 307 nM. For the compound `CN(c1ccc(Cl)c(C(=O)NCC2(O)CCCCC2)c1)c1cc(Cl)[nH]c(=O)n1` [Example 64, 2-Chloro-5-[(6-chloro-2-oxo-1,2-dihydro-pyrimidin-4-yl)-methyl-amino]-N-(1-hydroxy-cyclohexylmethyl)-benzamide], the IC50 is 902 nM.

On to `CSc1cc(N(C)c2ccc(Cl)c(C(=O)NCC3(O)CCCCC3)c2)ncn1` [Example 65, 2-Chloro-N-(1-hydroxy-cyclohexylmethyl)-5-[methyl-(6-methylsulfanyl-pyrimidin-4-yl)-amino]-benzamide], for which the IC50 amounted to 205 nM. The figure for `CN(c1ccc(Cl)c(C(=O)NCC2(O)CCCCC2)c1)c1cc(S(C)(=O)=O)ncn1` [Example 66, 2-Chloro-N-(1-hydroxy-cyclohexylmethyl)-5-[(6-methanesulfonyl-pyrimidin-4-yl)-methyl-amino]-benzamide] is 158 nM. In the case of `COc1cc(N(C)c2ccc(Cl)c(C(=O)NCC3(O)CCCCC3)c2)ncn1` [Example 67, 2-Chloro-N-(1-hydroxy-cyclohexylmethyl)-5-[(6-methoxy-pyrimidin-4-yl)-methyl-amino]-benzamide], the concentration for half-maximal inhibition (IC50) is 337 nM.

As to `CN(c1ccc(Cl)c(C(=O)NCC2(O)CCCCC2)c1)c1cc(=O)[nH]cn1` [Example 68, 2-Chloro-N-(1-hydroxy-cyclohexylmethyl)-5-[methyl-(6-oxo-1,6-dihydro-pyrimidin-4-yl)-amino]-benzamide], the 50% inhibitory concentration (IC50) turned out to be 288 nM. As to `O=C(NCC1(O)CCCCC1)c1cc(Nc2ncccn2)ccc1Cl` [Example 69, 2-Chloro-N-(1-hydroxy-cyclohexylmethyl)-5-(pyrimidin-2-ylamino)-benzamide], the half-maximal inhibitory concentration (IC50) worked out at 326 nM. `CN(c1ccc(Cl)c(C(=O)NCC2(O)CCCCC2)c1)c1ncccn1` [Example 70, 2-Chloro-N-(1-hydroxy-cyclohexylmethyl)-5-(methyl-pyrimidin-2-yl-amino)-benzamide]: the concentration for half-maximal inhibition (IC50) turned out to be 373 nM.

Consider `COCCN(c1ccc(Cl)c(C(=O)NCC2(O)CCCCC2)c1)c1ncccn1` [Example 71, 2-Chloro-N-(1-hydroxy-cyclohexylmethyl)-5-[(2-methoxy-ethyl)-pyrimidin-2-yl-amino]-benzamide], for which the IC50 was determined as 2000 nM. The value for `CSc1ccnc(Nc2ccc(Cl)c(C(=O)NCC3(O)CCCCC3)c2)n1` [Example 72, 2-Chloro-N-(1-hydroxy-cyclohexylmethyl)-5-(4-methylsulfanyl-pyrimidin-2-ylamino)-benzamide] was 1460 nM. As to `CSc1ccnc(N(C)c2ccc(Cl)c(C(=O)NCC3(O)CCCCC3)c2)n1` [Example 73, 2-Chloro-N-(1-hydroxy-cyclohexylmethyl)-5-[methyl-(4-methylsulfanyl-pyrimidin-2-yl)-amino]-benzamide], the 50% inhibitory concentration (IC50) is 322 nM. As to `COc1ccnc(N(C)c2ccc(Cl)c(C(=O)NCC3(O)CCCCC3)c2)n1` [Example 74, 2-Chloro-N-(1-hydroxy-cyclohexylmethyl)-5-[(4-methoxy-pyrimidin-2-yl)-methyl-amino]-benzamide], the IC50 turned out to be 280 nM.
